Laboratory results from patent publication US6596757B1, “Cytotoxic agents comprising polyethylene glycol-containing taxanes and their therapeutic use” (Immunogen Inc., priority 2002, dated 2003).

How the values were obtained:
[1] = tested on: MCF-7 cells; assay: In vitro cytotoxicity, MCF-7 cells, 72 hour exposure, surviving fraction by plating efficiency; format: cell-based; details: MCF-7 (human breast tumor) cells, read-out: IC50 value towards MCF-7 cells
Experimental: (§1) Disulfide-containing and thiol-containing PEGylated taxane drugs of the invention can be evaluated for their ability to suppress proliferation of various unwanted cell lines in vitro. For example, cell lines such as the human lung carcinoma line A549, the human breast tumor line MCF-7, and the Burkitt's lymphoma line Namalwa can easily be used for the assessment of cytotoxicity of these compounds. Cells to be evaluated can be exposed to the compounds for 72 hours and the surviving fractions of cells measured in direct assays by known methods. IC50 values can then be calculated from the results of the assays.
The sulfide, disulfide, and sulfhydryl containing PEGylated taxane drugs of the invention can be evaluated for their ability to suppress proliferation of various human tumor cell lines in vitro. Two adherent cell lines A549(human lung carcinoma) and MCF-7 (human breast tumor) and the non-adherent cell line, Namalwa (Burkitt's lymphoma) are used for the assessment of cytotoxicity of these compounds. Cells are exposed to the compounds for 72 hours and the surviving fractions of cells are measured in direct assays.

[2] = tested on: A-431 cells; assay: In vitro cytotoxicity, A-431 cells; format: cell-based; details: read-out: IC50 towards A-431 cells
Experimental: as §1
Cytotoxicity of the PEGylated taxanes and their antibody conjugates to non-adherent cell lines such as Namalwa and HL-60 can be measured by back-extrapolation of cell proliferation curves as described in Goldmacher et al, 135 J. Immunol. 3648-3651 (1985). Cytotoxicity of these compounds to adherent cell lines such as SKBR3 and A431 can be determined by clonogenic assays as described in Goldmacher et al, 102 J. Cell Biol. 1312-1319 (1986).

Row | SMILES | IC50 [1] | IC50 [2]
1 | COc1ccc(OC)c(C(=O)OC2C3C4(OC(C)=O)COC4CC(O)C3(C)C(=O)C(OC(=O)CCOCCOCCOCCOCCSSC)C3=C(C)C(OC(=O)C(O)C(C=C(C)C)NC(=O)OC(C)(C)C)CC2(O)C3(C)C)c1 (stereo not drawn) [taxoid 17, 3′-Dephenyl-3′-(isobutenyl)-2-debenzoyl-2-(2,5-dimethoxybenzoyl)-10-(15-methyldithio-4,7,10,13-tetraoxapentadecanoyl)-docetaxel] | 0.063 nM | 0.33 nM
2 | COc1ccc(OC)c(C(=O)OC2C3C4(OC(C)=O)COC4CC(OC(=O)CCOCCOCCOCCOCCSSC)C3(C)C(=O)C(O)C3=C(C)C(OC(=O)C(O)C(C=C(C)C)NC(=O)OC(C)(C)C)CC2(O)C3(C)C)c1 (stereo not drawn) [taxoid 20, 3′-Dephenyl-3′-(isobutenyl)-2-debenzoyl-2-(2,5-dimethoxybenzoyl)-7-(15-methyldithio-4,7,10,13-tetraoxapentadecanoyl)-docetaxel] | 0.32 nM | 
